# Source: ChEMBL document CHEMBL2040759, “Design, synthesis and anticancer activity of nitric oxide donating/chalcone hybrids” (2012)
# Columns and labels:
# Format in all cases: functional
# SR = test: Growth inhibition of human SR cells after 48 hrs by SRB assay
# HOP-92 = test: Growth inhibition of human HOP92 cells after 48 hrs by SRB assay; settings: HOP-92, 48 h
# NCI-H226 = test: Growth inhibition of human NCI-H226 cells after 48 hrs by SRB assay; settings: NCI-H226, 48 h
# NCI-H460 = test: Growth inhibition of human NCI-H460 cells after 48 hrs by SRB assay; settings: NCI-H460, 48 h
# HT-29 = test: Growth inhibition of human HT-29 cells after 48 hrs by SRB assay; settings: HT-29, 48 h
# KM12 = test: Growth inhibition of human KM12 cells after 48 hrs by SRB assay; settings: KM12, 48 h
# SW-620 = test: Growth inhibition of human SW620 cells after 48 hrs by SRB assay; settings: SW-620, 48 h
# SF-268 = test: Growth inhibition of human SF268 cells after 48 hrs by SRB assay; settings: SF-268, 48 h
# SF-295 = test: Growth inhibition of human SF295 cells after 48 hrs by SRB assay; settings: SF-295, 48 h
# SNB-19 = test: Growth inhibition of human SNB19 cells after 48 hrs by SRB assay; settings: SNB-19, 48 h
# OVCAR-4 = test: Growth inhibition of human OVCAR4 cells after 48 hrs by SRB assay; settings: OVCAR-4, 48 h
# 786-0 = test: Growth inhibition of human 786-0 cells after 48 hrs by SRB assay; settings: 786-0, 48 h
# SN12C = test: Growth inhibition of human SN12C cells after 48 hrs by SRB assay
# [1] = read-out: LC50 (the source's name)
structure (smiles),measurement,setting,value
O=C(CO[N+](=O)[O-])Nc1ccc(C(=O)/C=C/c2ccc(Cl)cc2)cc1,GI50,SR,3.64 µM
same,TGI,SR,> 100 µM
same,CC50,SR; [1],> 100 µM
same,GI50,HOP-92,2950 nM
same,TGI,HOP-92,15.2 µM
same,CC50,HOP-92; [1],53.2 µM
same,GI50,NCI-H226,5.15 µM
same,TGI,NCI-H226,29 µM
same,CC50,NCI-H226; [1],> 100 µM
same,GI50,NCI-H460,12.7 µM
same,TGI,NCI-H460,54.9 µM
same,CC50,NCI-H460; [1],> 100 µM
same,GI50,HT-29,2360 nM
same,TGI,HT-29,6.36 µM
same,CC50,HT-29; [1],> 100 µM
same,GI50,KM12,1540 nM
same,TGI,KM12,3.1 µM
same,CC50,KM12; [1],6.23 µM
same,GI50,SW-620,1440 nM
same,TGI,SW-620,2880 nM
same,CC50,SW-620; [1],5.77 µM
same,GI50,SF-268,2620 nM
same,TGI,SF-268,11.7 µM
same,CC50,SF-268; [1],38 µM
same,GI50,SF-295,5.82 µM
same,TGI,SF-295,29.2 µM
same,CC50,SF-295; [1],> 100 µM
same,GI50,SNB-19,4.11 µM
same,TGI,SNB-19,18.4 µM
same,CC50,SNB-19; [1],64 µM
same,GI50,OVCAR-4,4.06 µM
same,TGI,OVCAR-4,21 µM
same,CC50,OVCAR-4; [1],76.5 µM
same,GI50,786-0,11.6 µM
same,TGI,786-0,48 µM
same,CC50,786-0; [1],> 100 µM
same,GI50,SN12C,3.15 µM
same,TGI,SN12C,14.1 µM
same,CC50,SN12C; [1],49.6 µM
